What was measured:
[1] = tested on: normoglycemic rats; assay: Hypoglycemic effect of a single intraperitoneal injection in normoglycemic rats; format: in vivo
From the text: (§1) Preparation of Animals: For each experiment, eight (8) overnight fasted normoglycemic and diabetic rats were used. The animals were kept in the experimental animal laboratory for three days with free access to food and water.
(§2) On the day of the experiment, blood samples were collected at zero time before IP injection of the test substance (Riedel De Hein—Germany), and at intervals as given in Table 1 and 2. Blood samples were drawn from the ear vein in 100 micro millimeter heparinized capillary tubes.
(§3) Blood glucose concentrations were determined according to glucose oxidase method, using glucose enzymatic kits (Biomerioux France).
(§4) The percentage change in glycaemia was calculated.
(§5) For control animals, sterile saline solution was used instead of Linalool.
(§6) Data are expressed as means and standard error of the mean (S.E.M.) statistical analysis were performed using student's t test.

[2] = tested on: Streptozocin diabetic rats; assay: Hypoglycemic effect of a single intraperitoneal injection in Streptozocin diabetic (hyperglycemic) rats; format: in vivo
Protocol: as §1
Hyperglycemia was induced in the diabetic group of rats by a single intraperitoneal injection of Streptozocin (Upjohn Co, Kalamazoo, Mich., USA). […] body weight-freshly dissolved in citrate phosphate buffer with pH adjusted to 4.5.
Diabetes was confirmed one week after administration of Streptozocin by determining the fasting blood glucose concentration. […] The fasting blood glucose concentration in normal rats is 90-120 mg/dl.
as §2, §3, §4, §5, §6

[3] = tested on: rats (Rattus rattus); assay: LD 50 determination in rats, single subcutaneous dose; format: in vivo; details: one single dose subcutaneously
Protocol: 1. LD 50: For this determination, 59 rats (Rattus rattus) of both sexes were used with body weights of 200-240 grams to determine the LD50. The rats were divided into groups consisting of 5-6 rats each.
The rats were fed standard laboratory pellet diet and water ad libitum. Linalool was given as one single dose subcutaneously to rats in gradually increasing doses of 0.2 ml/kg body weight, […], 0.3 ml/kg, 0.35 ml/kg, 0.40 ml/kg, 0.45 ml/kg, 0.50 ml/kg, 0.55 ml/kg, 0.60 ml/kg, 0.65 ml/kg.
LD 50 was determined to be 0.63 ml/kg body weight.

[4] = tested on: diabetic volunteers (Diabetes Mellitus); assay: Limited clinical study in diabetic volunteers; format: in vivo, human; design: key to readings (blood glucose) / Fasting Blood Sugar: blood glucose in mg/dl
Protocol: The study was conducted with strict and continuous monitoring of all vital physical parameters of all volunteers. No clinical or biochemical side effects were observed during or after the test periods. Special attention was made while monitoring Blood Urea, Serum Creatinine, SGPT, Cholesterol, and Triglycerides.
The study involved over 200 diabetic volunteers with different types of Diabetes Mellitus and from different countries, and of both sexes. The breakdown was as follows:
Group One: Two (2) volunteers were new Diabetes Mellitus patients (Virgin cases).
These volunteers had never been treated for the disease and never taken any of the known and standard Diabetes Mellitus medications.
Started using Linalool Enteric Coated Softgels 0.45 ml 3 times daily with meals, on Feb. 22nd, 1999.
Group Two: One (1) volunteer had hyper insulinemia with readings of 400 mg/dl of glucose
The study involved over two hundred diabetic volunteers of both sexes, who had the disease from 3 to 25 years. In various lots, the volunteers were on insulin alone, insulin and hypoglycemic drugs, or hypoglycemic drugs alone. The patients took the product in the form of softgel enteric coated capsules (0.5 ml Linalool and 100 mg vitamin E) one capsule with meals three times a day. The duration of treatment was minimum three months. The product was given along with the classical hypoglycemic treatment (insulin and others). These classical hypoglycemic medications, Insulin—morning and evening, and Daonil (Glibenclamide 5 mg), Glucaphage (metformin 850 mg and other medications, were decreased gradually depending on the monitored improvements of the patient condition.

[5] = Group Two volunteer, hyper insulinemia, June 24, 1999

Compound: insulin: short acting soluble insulin preparation, 5 units injected IP as comparator [reference compound]
- decrease in blood glucose concentration within the first 15 min ([1]; insulin injection, called insignificant, rat group not stated): 17.1%
- decrease in blood glucose concentration after one hour ([1]; normoglycemic rats, 5 units of insulin injected IP): 49%
- decrease in blood glucose concentration after one hour ([2]; hyperglycemic rats, 5 units of insulin injected IP): 47.1%

Compound: C=CC(C)(O)CCC=C(C)C (stereo not drawn) [Linalool, 3,7 dimethyl-1,6-octadien-3-ol]
- LD 50 [3]: 0.63 ml/kg body weight
- Change in blood glucose % at 15 min. ([1]; Table 1, normoglycemic rats, 0.2 ml/kg single i.p. injection, 15 min): −36.1%
- Change in blood glucose % at 1 h. ([1]; Table 1, normoglycemic rats, 0.2 ml/kg single i.p. injection): −35.2%
- Change in blood glucose % at 1 h. ([1]; Table 2, normoglycemic rats, 0.2 ml/kg single i.p. injection, mean ± S.E.M.): −35.2 ± 6.2 %
- Change in blood glucose % at 4 h. ([1]; Table 2, normoglycemic rats, 0.2 ml/kg single i.p. injection, 4 h, mean ± S.E.M.): −40.9 ± 8.2 %
- Change in blood glucose % at 24 h. ([1]; Table 2, normoglycemic rats, 0.2 ml/kg single i.p. injection, 24 h, mean ± S.E.M.): −18.9 ± 4.4 %
- hypoglycemic activity within the first four hours after the administration ([1]; first of two values, normoglycemic rats (first hour)): 33.2%
- time of highest hypoglycemic activity after the intraperitoneal injection ([1]; normoglycemic rats): four
- decrease in blood glucose concentration within the first 15 min ([1]; normoglycemic rats treated by Linalool): 36.1%
- hypoglycemic activity (in words) ([1]; normoglycemic rats, i.p. injection): significant hypoglycemic activity
- Change in blood glucose % at 15 min. ([2]; Table 1, hyperglycemic rats, 0.2 ml/kg single i.p. injection, 15 min): −32.1%
- Change in blood glucose % at 1 h. ([2]; Table 1, hyperglycemic rats, 0.2 ml/kg single i.p. injection): −35%
- Change in blood glucose % at 1 h. ([2]; Table 2, hyperglycemic rats, 0.2 ml/kg single i.p. injection, mean ± S.E.M.): −36.4 ± 8.6 %
- Change in blood glucose % at 4 h. ([2]; Table 2, hyperglycemic rats, 0.2 ml/kg single i.p. injection, 4 h, mean ± S.E.M.): −43.7 ± 6.6 %
- Change in blood glucose % at 24 h. ([2]; Table 2, hyperglycemic rats, 0.2 ml/kg single i.p. injection, 24 h, mean ± S.E.M.): −55.8 ± 6.2 %
- time of highest hypoglycemic activity after the injection ([2]; hyperglycemic rats): 24 h
- decrease in blood glucose concentration within the first 15 min ([2]; hyperglycemic rats treated by Linalool): 32.1%
- hypoglycemic activity (in words) ([2]; hyperglycemic rats, i.p. injection): significant hypoglycemic activity
- hypoglycemic activity within the first four hours after the administration ([2]; second of two values, hyperglycemic rats (first hour)): 36.4%
- readings (blood glucose) ([4]; Group Three volunteer 4, Dec. 17): 175 mg/dL
- readings (blood glucose) ([4]; Group Three volunteer 4, Dec. 24): 163
- readings (blood glucose) ([4]; Group Three volunteer 4, Jul. 26, 1999): 105 mg/dL
- clinical outcome (physician's judgement) ([4]; Group Three volunteer 4, July 14th, taken off all medication): CURED
- HbAlc Readings (lowered to) ([4]; Group Three volunteer 4, Jun. 4, 1999): 6.18%
- readings (blood glucose) ([4]; Group Three volunteer 4, Jun. 18): 109
- readings (blood glucose) ([4]; Group Three volunteer 4, Jun. 26): 105
- HbAlc Readings, starting value (lowered from) ([4]; Group Three volunteer 4, date not stated): 9.3%
- Fasting Blood Sugar ([4]; Group Three volunteer 5, diabetic over 20 years, Jul. 27, 1998): 233 mg/dL
- HbAlc [4, 5]: 7.5%
- Insulin, Fasting [4, 5]: 25.6 uU/mL
- Serum Glucose, Fasting [4, 5]: 222 mg/dL
- Serum Glucose, Fasting ([4]; Group Two volunteer, hyper insulinemia, May 17, 1999, untreated reading 197 mg/dl): 200 mg/dL
- HbAlc ([4]; Group Two volunteer, hyper insulinemia, May 17, 1999, untreated reading 8.2%): 8.1%
- Insulin, Fasting ([4]; Group Two volunteer, hyper insulinemia, May 17, 1999, untreated reading 42 uU/mL): 18.40 uU/mL
- reduction of fasting insulin level ([4]; Group Two volunteer, from 42 uU/mL to 25.6): ~50%
- Fasting Blood Sugar ([4]; volunteer 5, Aug. 17, 1998): 190
- HbAlc ([4]; volunteer 5, Aug. 17, 1998): 10.1%
- Fasting Blood Sugar ([4]; volunteer 5, Jan. 27, 1999): 167
- HbAlc ([4]; volunteer 5, Jan. 27, 1999): 7.0%
- HbAlc ([4]; volunteer 5, Jul. 27, 1998): 11.2%
- Fasting Blood Sugar ([4]; volunteer 5, Nov. 1, 1998): 114
- Fasting Blood Sugar ([4]; volunteer 5, Nov. 12, 1998): 135
- HbAlc ([4]; volunteer 5, Nov. 12, 1998): 7.5%
- Fasting Blood Sugar ([4]; volunteer 5, Sep. 17, 1998): 166
- HbAlc ([4]; volunteer 5, Sep. 17, 1998): 9.7%
